# Experiments:
# [1] = Rocklage et al., 1989; cited from earlier work
# [2] = from the reported stability constants
# [3] = Rocklage et al., 1989; cited from earlier work; remark: listed apart in the source
# [4] = Rocklage et al., 1989; cited from earlier work; remark: listed apart in the source
# [5] = Fenton assay (competition with iron, H2DCF oxidation); conditions: FIG. 4
# Method: By permitting the chelator DPDP, the metal complexes MnDPDP and MnPLED to compete with iron in the Fenton assay, the stability of MnDPDP and MnPLED was compared.
# H2O2 (100 μM) was added to initiate the production of hydroxyl radicals (HO.). The latter oxidize H2DCF (non-fluorescent 2′,7′-dichlorodihydrofluorescein; 5 μM) to fluorescent DCF (2′,7′-dichlorofluorescein). H2DCF was obtained by hydrolysing its acetate ester (H2DCF-DA)]. […] DPDP, MnDPDP and MnPLED at various concentrations were assayed for their iron-chelating capacity. Fluorescence was measured in an FL600 Microplate Fluorescence reader (Bio-Tek, Winooski, Vt., U.S.A.) at ex 485 nm and em 530 nm.
# [6] = cited from earlier work
# infarct size = conditions: pigs; MnPLED 3 μmol/kg; cited from earlier work
# [7] = system: normal retinal epithelia telomerase immortalized cells (hTERT-RPE1); experiment: Fluorometric microculture cytotoxicity assay (FMCA), hTERT-RPE1; type: cell-based; conditions: for cytostatic effect (alone): FMCA, 72 h
# [8] = system: human ileocecal colorectal adenocarcinoma cells (HCT-8); experiment: Fluorometric microculture cytotoxicity assay (FMCA), HCT-8; type: cell-based; conditions: HCT-8 cells; for cytostatic effect (alone): FMCA, 72 h
# Method: (§1) HCT-8 cells were grown in RPMI 1640 medium with sodium pyruvate (1 mM) and 10% horse serum. SW620 were grown in ATCC-formulated Leibovitz's L-15 Medium with 10% fetal bovine serum. Cells were kept at 37° C. in a humidified atmosphere containing 5% carbon dioxide. The cells were harvested in the log-phase for experimental use. The fluorometric microculture cytotoxicity assay (FMCA) was used to investigate the cytostatic activity of oxaliplatin, MnDPDP or DPDP and combinations thereof. FMCA is based on measurement of fluorescence generated from hydrolysis of fluorescein diacetate (FDA) to fluorescein by cells with intact plasma membranes. Briefly, 96-well microtiter plates were freshly prepared with drug solutions in triplicates at 10 times the desired drug concentrations. Cell suspensions were seeded into the drug-prepared plates with 20 000 cells per well and plates were then incubated for 72 h. After incubation, the plates were washed, FDA was added, and after 50 min of incubation the fluorescence generated (excitation 480 nm) was measured at 538 nm in a fluorometer (Fluorostar Optima, BMG Technologies). The fluorescence is proportional to the number of cells with intact plasma membrane present in the well.
# [9] = pigs, ten minutes after injection; cited from earlier work
# [10] = system: human adenocarcinoma cells (SW620); experiment: Fluorometric microculture cytotoxicity assay (FMCA), SW620; type: cell-based; conditions: for cytostatic effect (alone): FMCA, 72 h
# Method: as §1
# [11] = system: human colon cancer SW480 cells; conditions: 24 h, MTT
# Method: (§2) The viability of cells was measured using the MTT assay. Briefly, 20,000 SW480 or J774 cells were seeded per well on a 96-well plate and grown over night in Dulbecco's Modified Eagle's Medium (DMEM) containing 10% fetal bovine serum, 2 mM L-glutamine, 100 Ul/ml penicillin and 100 μg/ml streptomycin at 37° C. in humidified air with 5% CO2. Cells were then exposed for 24 h to 50 μM MnDPDP, 50 μM DPDP or 10 μM oxaliplatin at 37° C. The effect of combining 50 μM DPDP with 10 μM oxaliplatin on viability was also tested. The viability of the cells was then assessed by adding 5 mg/ml methylthiazoletetrazolium (MTT) to a final concentration of 0.5 mg/ml and incubating cells for a further 4 h at 37° C. The blue formazan that is formed by mitochondrial dehydrogenases of viable cells was then dissolved over night at 37° C. by adding 10% SDS and 10 mM HCl to a final concentration of 5% SDS and 5 mM HCl. Finally, the absorbance of the solution was read at 570 nm with a reference at 670 nm in a microplate reader Spectramax 340 (Molecular Devices, Sunnyvale, Calif., USA) connected to an Apple Macintosh computer running the program Softmax Pro V1.2.0 (Molecular Devices, Sunnyvale, Calif., USA).
# [12] = system: murine lymphoma J774 cells; conditions: 24 h, MTT
# Method: as §2
compound,measurement,setting,value
"Cc1ncc(CO)c(CN(CCN(CC(=O)O)Cc2c(CO)cnc(C)c2O)CC(=O)O)c1O [PLED, N,N′-dipyridoxyl ethylenediamine-N,N′-diacetic acid]",stability constant with Fe^3+ (ferric iron),[1],36.88 logK
same,how much more readily Mn^2+ dissociates than Zn^2+,[2],about 1000 times
same,stability constant with Zn^2+,[3],16.68 logK
same,stability constant with Mn^2+,[4],12.56 logK
MnDPDP,iron-chelating capacity,[5]; Fenton assay,significantly higher than that of MnPLED
same,administered manganese released,"[6]; humans, intravenous injection",about 70%
same,injected manganese that stays bound to the chelator,"[6]; man, for a considerable amount of time",about 30%
same,injected MnDPDP transformed into MnPLED,"[6]; man, shortly after intravenous injection",about 30%
same,infarct size,infarct size,did not reduce the infarct size
same,cytostatic effect (alone),[7],Neither MnDPDP nor DPDP demonstrated any cytostatic effect
same,cytostatic effect (alone),[8],Neither MnDPDP nor DPDP demonstrated any cytostatic effect
same,replacement of manganese with zinc,[9],all manganese has been replaced with zinc
same,cytostatic effect (alone),[10],Neither MnDPDP nor DPDP demonstrated any cytostatic effect
"O=C1[O][Pt]2([NH][C@@H]3CCCC[C@H]3[NH]2)[O]C1=O [Oxaliplatin, oxaliplatin]",cytostatic effect (alone),[7],only a slight effect at its highest concentration
same,cytostatic effect (alone),[8],concentrations-dependent cytostatic effect
same,cytostatic effect (alone),[10],concentrations-dependent cytostatic effect
"Cc1ncc(COP(=O)(O)O)c(CN(CCN(CC(=O)O)Cc2c(COP(=O)(O)O)cnc(C)c2O)CC(=O)O)c1O [DPDP, N,N′-bis-(pyridoxal-5-phosphate)-ethylenediamine-N,N′-diacetic acid]",inhibition of the Fenton reaction,"[5]; 10 μM ferric iron, 100 μM cysteine, 100 μM H2O2",inhibited the Fenton reaction in a dose-dependent manner
same,concentration at which inhibition of the Fenton reaction started,[5]; 10 μM ferric iron,0.1 µM
same,concentration at which inhibition of the Fenton reaction was complete,[5]; 10 μM ferric iron,10 µM
same,cytostatic activity in combination with oxaliplatin versus oxaliplatin alone,[11]; 50 μM DPDP + 10 μM oxaliplatin,"tendency, although not statistically significant (p<0.07), that DPDP in combination with oxaliplatin was more potent than oxaliplatin alone"
same,cytostatic activity,"[11]; 50 μM, unpaired t-test, FIG. 1",statistically significant more efficacious than that of 50 μM MnDPDP
same,cytostatic activity in combination with oxaliplatin versus oxaliplatin alone,[12]; 50 μM DPDP + 10 μM oxaliplatin,significantly more efficacious than oxaliplatin alone
same,cytostatic activity,"[12]; 50 μM, FIG. 2",significantly more efficacious to kill the lymphoma cells than MnDPDP
same,how much more readily Mn^2+ dissociates than Zn^2+,[2],about 1000 times
same,potentiation of the cytostatic effects of oxaliplatin,"[7]; 100 μM with 8 μM oxaliplatin, FMCA 72 h, FIG. 3D",but not in normal cells
same,cytostatic effect (alone),[7],Neither MnDPDP nor DPDP demonstrated any cytostatic effect
same,potentiation of the cytostatic effects of oxaliplatin,"[8]; 100 μM with 8 μM oxaliplatin, FMCA 72 h, FIG. 3C",significantly (unpaired t-test) potentiated
same,cytostatic effect (alone),[8],Neither MnDPDP nor DPDP demonstrated any cytostatic effect
same,potentiation of the cytostatic effects of oxaliplatin,"[10]; 100 μM with 8 μM oxaliplatin, FMCA 72 h, FIG. 3B",significantly (unpaired t-test) potentiated
same,cytostatic effect (alone),[10],Neither MnDPDP nor DPDP demonstrated any cytostatic effect

# Reference: patent publication US8377969B2, “Compounds for use in the treatment of cancer” (PledPharma AB, priority 2007, dated 2013)
